Data: patent US6384083B1, “USE OF ADAMANTANE AMINES OR STRUCTURALLY SIMILAR COMPOUNDS FOR COMBATING BORNA DISEASE VIRUS AND FOR THE PREVENTION AND TREATMENT OF AFFECTIVE DISEASES AND OTHER DISORDERS ASSOCIATED WITH BDV INFECTIONS IN HUMANS AND ANIMALS” (priority 1996, dated 2002)
Counter-ions that a name gives are not always drawn.

How the values were obtained:
[1] = cited from earlier work
[2] = system: activated BDV infection / depression; experiment: Treatment of a BDV-infected patient with bipolar disease (severe depressive episode)
[3] = system: influenza A strains; conditions: cited from earlier work
[4] = system: influenza B strains; conditions: cited from earlier work
[5] = system: human Borna disease virus strain BDV-Hu-H1; experiment: Inhibition of BDV infection of young rabbit brain cells after one-hour pre-treatment; assay type: cell-based, Borna disease virus (human strain) in rabbit brain cells; conditions: one-hour pre-treatment before infection, 100±10 ffu/mL BDV-Hu-H1, read-out: concentration that inhibits the infection of rabbit brain cells with human BDV to the extent of 50%
Protocol: (§1) Young rabbit brain cells were treated with amantadine sulfate and, in a comparison experiment, with meso-inositol. After this treatment, both samples were treated for 1 hour with a human Borna disease virus strain (100±10 ffu/mL with BDV-Hu-H1 (regarding this strain, refer also to L. Bode, et al., Mol. Psychiatry 1996, 1(3), 200-212)).
(§2) The highest in vitro dose, which permits normal, unimpaired cell growth, is 1.2 μg/mL, relative to the cell system.

[6] = system: rabbit brain cells; experiment: Cell growth tolerance in the rabbit brain cell system; assay type: cell-based; conditions: relative to the cell system
Protocol: as §1, §2

[7] = system: human oligodendroglia cells (OL cells); experiment: Cell growth of OL cells under amantadine sulfate; conditions: 1.2 μg/mL, whole period observed
Protocol: (§3) On the other side, freshly infected OL cells were treated with the same drug dose for 24 hours and then for a further 6 days after the infection.

[8] = system: BDV-Hu-H1; experiment: Inhibition of BDV replication in human oligodendroglia (OL) cells; conditions: already infected OL cells, 1.2 μg/mL, 6 days
Protocol: as §3

In the case of `NC12CC3CC(CC(C3)C1)C2` [amantadine, 1-adamantane amine], the half-lifetime ([1]; in vivo) is listed as “approximately 15 hours”, the “absorption after oral administration” value ([1]; oral) is listed as “absorbed almost completely” and the “depression-free time without hypomanic rebound effect” value ([2]; patient under therapy) is listed as 5 months.

In the case of `NC12CC3CC(CC(C3)C1)C2` [amantadine hydrochloride], the “push back of virus production” value [3] is listed as “by a power of 10” and the “sensitivity of the virus” value [4] is listed as “not sensitive”.

In the case of `CC(N)C12CC3CC(CC(C3)C1)C2` (centres unmarked) [rimantadine, 1-adamantyl-(1-amino) ethane], the excretion / metabolism ([1]; in vivo) is given as “metabolized in the liver”.

With `NC12CC3CC(CC(C3)C1)C2` [amantadine sulfate] the IC50 [5] was 0.019 µg/mL, the “highest in vitro dose which permits normal, unimpaired cell growth” value [6] was 1.2 µg/mL and the “effect on cell growth” value [7] was “practically not affected”. For the same molecule, the “reduction of the number of infectious viruses (factor)” value [8] was “more than 10,000”, the “Borna virus activity (protein expression in the blood leucocytes)” value ([2]; after the 11th day of treatment and also 5 months later) was “could no longer be detected” and the “course of depression under treatment” value ([2]; from the 8th day to the 11th day, 50 to 200 mg daily) was “improved dramatically”. The “day of treatment after which discharge from hospital was possible” value ([2]; patient) was 15 days and the undesirable side effects ([2]; patient, until now) was “no undesirable side effects”.
